Experimental findings from patent publication US10869931B2, “Polyethylene glycol-modified angiogenesis inhibitor HM-1 and application thereof” (NANJING ANJI BIOLOGICAL TECHNOLOGY CO.,LTD, priority 2016, dated 2020) are described below.

Where no end group is shown, it is not given here.

Assay [1] has as its system Melanoma tumor cells. Put plainly: MTT proliferation inhibition, melanoma cells. The arrangement: concentration or dose not given beside the values. Format: cell-based, human. The settings on record: 48 h. Summed up: (§1)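 Tumour cells plated at 2×10^4 cells/mL, attached overnight, then exposed to dilutions of mPEG-HM-1 for 48 h at 37 °C, 5% CO2. MTT added 4 h, formazan dissolved in DMSO, absorbance 570/630 nm; growth inhibition = 1 − treated/untreated, three independent repeats, mean±SD.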

The test system of assay [2] is Head and neck cancer tumor cells. The assay is described as follows: MTT proliferation inhibition, head and neck cancer cells. Format: cell-based, human. The note with it: 48 h. The arrangement: concentration or dose not given beside the values. Summed up:
as §1

Assay [3] relates to Uterine cancer tumor cells. The assay is described as follows: MTT proliferation inhibition, uterine cancer cells. Format: cell-based, human. Set-up: concentration or dose not given beside the values. The note with it: 48 h. Summed up:
as §1

Assay [4] relates to Esophageal cancer tumor cells. Put plainly: MTT proliferation inhibition, esophageal cancer cells. Format: cell-based, human. The arrangement: concentration or dose not given beside the values. The note with it: 48 h. The procedure, abridged:
as §1

Assay [5] has as its system Gastric cancer tumor cells. The assay is described as follows: MTT proliferation inhibition, gastric cancer cells. Format: cell-based, human. The arrangement: concentration or dose not given beside the values. The note with it: 48 h. Summed up:
as §1

In assay [6] the test system is Ovarian cancer tumor cells. The assay is described as follows: MTT proliferation inhibition, ovarian cancer cells. The arrangement: concentration or dose not given beside the values. Format: cell-based, human. The settings on record: 48 h. Summed up:
as §1

Assay [7] deals with Prostate cancer tumor cells. Put plainly: MTT proliferation inhibition, prostate cancer cells. Set-up: concentration or dose not given beside the values. Format: cell-based, human. The note with it: 48 h. The procedure, abridged: as §1
Assay [8] has as its system mouse spleen lymphocytes. The assay is described as follows: ConA-stimulated mouse spleen lymphocyte proliferation (MTT). The settings on record: ConA 5 μg/mL, 48 h. Format: cell-based. The procedure, abridged: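 Spleen cells, red cells lysed with Tris-NH4Cl, plated at 5×10^6/mL in RPMI 1640 with 10% calf serum alongside blank, ConA and Dex (0.02 mg/mL) groups. After 48 h at 37° C., MTT added for 4 h, formazan dissolved in DMSO, OD read at 570 nm, 5 replicates.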

Assay [9] has as its system carrageenan-induced toe swelling in SD rats. Put plainly: Carrageenan-induced acute toe swelling in rats. The arrangement: Swelling: unit not given here. Format: in vivo, rat. The settings on record: for inhibition of carrageenan-induced toe swelling (in words): rats, 40 mg/kg, once a day for 3 days. As to the method: SD rats were divided into blank model group, dexamethasone-positive group (5 mg/kg) and mPEG-HM-1 test group. The drug was administered once a day, and the model group was given the same volume of normal saline for 3 days and fed normally. At the first hour after the last administration, 0.1 mL of 1% carrageenan was injected subcutaneously into the right hind paw of the rats to induce inflammation. The volume of the foot was measured at 1 h, 3 h, 5 h, and 7 h after inflammation. The degree of swelling of the foot was calculated according to the following formula: the degree of swelling of the foot (mL)=the volume of the foot after inflammation−the volume before inflammation. Record the number of milliliters of spilled liquid (method: use the ballpoint pen to circle as the measurement mark at the protruding point of the right joint, and then put the right hind foot of each mouse into the volume measuring device, so that the hind limb is exposed outside the cylinder, and the depth of the immersion was determined by coinciding the circle with the liquid surface. After the foot enters the liquid, the liquid level rises, and the volume of the overflow liquid is the volume of the right hind foot of the rat, and the normal volume of the right hind foot of each mouse is sequentially determined).

Assay [10] relates to Colorectal cancer tumor cells. The assay is described as follows: MTT proliferation inhibition, colorectal cancer cells. Format: cell-based, human. Set-up: concentration or dose not given beside the values. The settings on record: 48 h. The procedure, abridged:
as §1

[11] abbreviates: 80 mg/kg once a day for 3 days, 1 h after carrageenan.
Setting [12] is: 80 mg/kg once a day for 3 days, 3 h after carrageenan.
Setting [13] is: 80 mg/kg once a day for 3 days, 5 h after carrageenan.
[14] abbreviates: 80 mg/kg once a day for 3 days, 7 h after carrageenan.
Setting [15] is: 20 mg/kg once a day for 3 days, 1 h after carrageenan.
Where [16] appears, read: 20 mg/kg once a day for 3 days, 3 h after carrageenan.
Setting [17] is: 20 mg/kg once a day for 3 days, 5 h after carrageenan.
The mark [18] stands for this setting: 20 mg/kg once a day for 3 days, 7 h after carrageenan.
Setting [19] is: 40 mg/kg once a day for 3 days, 1 h after carrageenan.
[20] abbreviates: 40 mg/kg once a day for 3 days, 3 h after carrageenan.
Where [21] appears, read: 40 mg/kg once a day for 3 days, 5 h after carrageenan.
[22] abbreviates: 40 mg/kg once a day for 3 days, 7 h after carrageenan.

In the case of “mPEG-SC40k-Arg-Gly-Ala-Asp-Arg-Ala-Gly-Gly-Gly-Gly-Arg-Gly-Asp ({mPEG‑SC 40 kDa}-RGADRAGGGGRGD) [mPEG-SC40k-HM-1]”, the “rate of growth inhibition” value in [1] is given as 68.73 ± 21.25%; in assay [2], 43.22 ± 10.25%; in assay [3], 70.27 ± 21.37%; in assay [4], 52.12 ± 12.35%; in assay [5], 55.13 ± 10.32%; in assay [6] it was 68.46 ± 13.19%. Also, the “rate of growth inhibition” value in [7] was determined as 45.93 ± 12.72%; in [10], 62.45 ± 19.22%. The “A570 nm/A630 nm” value stood at 0.6212 ± 0.0972 in [8] (40 μg/mL), 0.5493 ± 0.1056 in assay [8] (80 μg/mL) and 0.4794 ± 0.1214 in [8] (160 μg/mL). Moreover, the figures for the “Inhibition Rate of spleen lymphocyte proliferation” value (“Inhibition Rate” for short) in [8] (40 μg/mL), in assay [8] (80 μg/mL) and in assay [8] (160 μg/mL) were 9.92%, 20.34% and 30.48%, respectively. In addition, the Swelling in assay [9] (setting [11]) amounted to 0.25 ± 0.13; in [9] (setting [12]) it was 0.34 ± 0.12; in [9] (setting [13]), 0.44 ± 0.15; in assay [9] (setting [14]) it was 0.34 ± 0.16; in [9] (160 mg/kg once a day for 3 days, 1 h after carrageenan) it was 0.24 ± 0.12; in assay [9] (160 mg/kg once a day for 3 days, 3 h after carrageenan) it was 0.33 ± 0.13. The Swelling in assay [9] (160 mg/kg once a day for 3 days, 5 h after carrageenan) worked out at 0.43 ± 0.12; in assay [9] (160 mg/kg once a day for 3 days, 7 h after carrageenan) it was 0.33 ± 0.13.
For the substance “mPEG-ALD10k-Arg-Gly-Ala-Asp-Arg-Ala-Gly-Gly-Gly-Gly-Arg-Gly-Asp ({mPEG‑ALD 10 kDa}-RGADRAGGGGRGD) [mPEG-ALD10k-HM-1]”, the “rate of growth inhibition” value in [1] stood at 88.39 ± 22.38%; in assay [2], 48.93 ± 12.14%; in assay [3], 90.79 ± 22.19%; in assay [4] it was 65.18 ± 15.16%; in assay [5], 80.01 ± 18.26%; in assay [6], 85.73 ± 22.17%. Also, the results for the “rate of growth inhibition” value in [7] and in [10] were 51.09 ± 11.78% and 80.22 ± 20.03%, respectively. Moreover, the results for the “A570 nm/A630 nm” value in [8] (10 μg/mL), in assay [8] (20 μg/mL) and in [8] (40 μg/mL) were 0.6116 ± 0.1046, 0.5352 ± 0.1022 and 0.4651 ± 0.1086, respectively. Besides, the “Inhibition Rate” value was determined as 10.96% in assay [8] (10 μg/mL), 22.08% in [8] (20 μg/mL) and 32.29% in [8] (40 μg/mL). Besides, the Swelling in assay [9] (setting [15]) is on record as 0.24 ± 0.12; in [9] (setting [16]), 0.36 ± 0.13; in [9] (setting [17]), 0.42 ± 0.15; in [9] (setting [18]) it was 0.32 ± 0.10; in [9] (setting [19]), 0.21 ± 0.10; in assay [9] (setting [20]), 0.31 ± 0.20. The Swelling in assay [9] (setting [21]) was found to be 0.36 ± 0.13; in assay [9] (setting [22]), 0.33 ± 0.12. In addition, the “inhibition of carrageenan-induced toe swelling (in words)” value in [9] is recorded as “most effective”.
On to “mPEG-bALD10k-Arg-Gly-Ala-Asp-Arg-Ala-Gly-Gly-Gly-Gly-Arg-Gly-Asp ({mPEG‑bALD 10 kDa}-RGADRAGGGGRGD) [mPEG-bALD10k-HM-1]”, for which the “rate of growth inhibition” value came out at 82.33 ± 20.08% in assay [1]; 49.01 ± 12.14% in assay [2]; 79.79 ± 20.45% in [3]; 64.92 ± 12.17% in assay [4]; 75.01 ± 16.20% in [5]; 80.35 ± 20.53% in assay [6]. In addition, the figures for the “rate of growth inhibition” value in assay [7] and in assay [10] were 50.02 ± 10.65% and 75.62 ± 18.03%, respectively. Besides, the “A570 nm/A630 nm” value is reported as 0.6179 ± 0.1049 in [8] (10 μg/mL), 0.5469 ± 0.1122 in [8] (20 μg/mL) and 0.4666 ± 0.1040 in assay [8] (40 μg/mL). The “Inhibition Rate” value in assay [8] (10 μg/mL) came to 10.94%; in [8] (20 μg/mL) it was 21.18%; in [8] (40 μg/mL) it was 32.75%. In addition, in assay [9], the “inhibition of carrageenan-induced toe swelling (in words)” value is on record as “most effective”.
Consider “mPEG-ALD20k-Arg-Gly-Ala-Asp-Arg-Ala-Gly-Gly-Gly-Gly-Arg-Gly-Asp ({mPEG‑ALD 20 kDa}-RGADRAGGGGRGD) [mPEG-ALD20k-HM-1]”, for which the “rate of growth inhibition” value in assay [1] is reported as 80.71 ± 23.46%; in [2], 47.61 ± 10.68%; in [3], 89.37 ± 23.47%; in [4] it was 60.18 ± 15.32%; in assay [5], 75.23 ± 20.62%; in assay [6] it was 80.68 ± 21.69%. Further, the “rate of growth inhibition” value in [7] is recorded as 43.99 ± 12.77%; in assay [10], 72.43 ± 19.32%. For the same substance, the “A570 nm/A630 nm” value in assay [8] (20 μg/mL) is 0.6035 ± 0.0989; in [8] (40 μg/mL), 0.4876 ± 0.1259; in assay [8] (80 μg/mL), 0.4406 ± 0.1074. In addition, the “Inhibition Rate” value was determined as 12.14% in assay [8] (20 μg/mL), 29.02% in assay [8] (40 μg/mL) and 35.85% in [8] (80 μg/mL). Besides, the Swelling in assay [9] (setting [19]) stood at 0.27 ± 0.13; in assay [9] (setting [20]), 0.34 ± 0.16; in assay [9] (setting [21]) it was 0.41 ± 0.14; in assay [9] (setting [22]), 0.35 ± 0.13; in [9] (setting [11]) it was 0.25 ± 0.09; in [9] (setting [12]) it was 0.32 ± 0.11. For the same substance, the Swelling in assay [9] (setting [13]) came to 0.40 ± 0.15; in assay [9] (setting [14]) it was 0.32 ± 0.16.
In the case of “mPEG2-NHS5k-Arg-Gly-Ala-Asp-Arg-Ala-Gly-Gly-Gly-Gly-Arg-Gly-Asp ({mPEG2‑NHS 5 kDa}-RGADRAGGGGRGD) [mPEG2-NHS5k-HM-1]”, the “rate of growth inhibition” value in [1] was 59.21 ± 18.93%; in [2], 37.13 ± 11.32%; in assay [3] it was 55.20 ± 15.63%; in assay [4], 41.35 ± 11.32%; in assay [5], 50.31 ± 13.29%; in [6] it was 56.88 ± 21.07%. In addition, the “rate of growth inhibition” value in assay [7] worked out at 39.33 ± 12.01%; in assay [10], 52.37 ± 12.24%. The results for the “A570 nm/A630 nm” value in [8] (5 μg/mL), in assay [8] (10 μg/mL) and in [8] (20 μg/mL) were 0.6304 ± 0.0983, 0.5624 ± 0.1098 and 0.4873 ± 0.1126, respectively. For the same substance, the “Inhibition Rate” value in assay [8] (5 μg/mL) came to 8.96%; in assay [8] (10 μg/mL), 18.78%; in assay [8] (20 μg/mL) it was 29.62%. The Swelling amounted to 0.25 ± 0.13 in assay [9] (10 mg/kg once a day for 3 days, 1 h after carrageenan); 0.36 ± 0.12 in [9] (10 mg/kg once a day for 3 days, 3 h after carrageenan); 0.43 ± 0.17 in assay [9] (10 mg/kg once a day for 3 days, 5 h after carrageenan); 0.31 ± 0.15 in assay [9] (10 mg/kg once a day for 3 days, 7 h after carrageenan); 0.22 ± 0.11 in assay [9] (setting [15]); 0.32 ± 0.21 in assay [9] (setting [16]). In addition, the Swelling in assay [9] (setting [17]) is reported as 0.36 ± 0.12; in assay [9] (setting [18]) it was 0.32 ± 0.16.
